This is an account of results in patent US20240156832A1, “METHODS OF METABOLIZING METOPIMAZINE AND ITS SALTS” (Neurogastrx, Inc., priority 2020, published 2024).

Structures are written as SMILES.

A short description of series [1]: Incubation with HKM for FMO. In kind it is in vitro ADME, human. Conditions: HKM pH 8.4, NADPH, with/without methimazole, heat inactivation. The protocol:
(§1) MPZ, at 1.0 and 10.0 μM, was incubated with HLM or HKM to determine the contribution of microsomal FMOs on the metabolism of MPZ. A reaction mixture containing KPi buffer (pH 8.4), HLM or HKM (0.5 mg/mL protein) and MPZ (1.0 and 10.0 μM) was pre-incubated for 3-5 minutes at 37° C. The reaction was initiated by the addition of NADPH into the reaction mixture. Reaction was conducted for 0 and 60 min. A positive control (benzydamine, 100 μM) was incubated in duplicate for 0 and 20 minutes. Parallel incubation was conducted by adding 1 mM methimazole, a non-specific FMO inhibitor, under identical conditions. Heat inactivated microsomes (50° C. for at least 5 minutes) was incubated under identical conditions negative control. All other procedures were the same as described previously.

Another series relates to microsomal FMOs in HLM. The series is described as follows: Incubation with HLM for FMO (pH 8.4, methimazole, heat). In kind it is in vitro ADME, human. The following applies: 1 and 10 μM MPZ, NADPH, with and without methimazole, heat-pretreated control. How it is done: MPZ, at 1.0 and 10.0 μM, was incubated with HLM or HKM to determine the contribution of microsomal FMOs on the metabolism of MPZ.
as §1, with “A” for “MPZ, at 1.0 and 10.0 μM, was incubated with HLM or HKM to determine the contribution of microsomal FMOs on the metabolism of MPZ. A”

The target of series [2] is T1, human liver cytosolic aldehyde oxidase (Homo sapiens, UniProt Q06278).
T1 construct: tissue Xenotech; host or cells: pooled human liver cytosol
T1 sequence (Q06278 1-1338): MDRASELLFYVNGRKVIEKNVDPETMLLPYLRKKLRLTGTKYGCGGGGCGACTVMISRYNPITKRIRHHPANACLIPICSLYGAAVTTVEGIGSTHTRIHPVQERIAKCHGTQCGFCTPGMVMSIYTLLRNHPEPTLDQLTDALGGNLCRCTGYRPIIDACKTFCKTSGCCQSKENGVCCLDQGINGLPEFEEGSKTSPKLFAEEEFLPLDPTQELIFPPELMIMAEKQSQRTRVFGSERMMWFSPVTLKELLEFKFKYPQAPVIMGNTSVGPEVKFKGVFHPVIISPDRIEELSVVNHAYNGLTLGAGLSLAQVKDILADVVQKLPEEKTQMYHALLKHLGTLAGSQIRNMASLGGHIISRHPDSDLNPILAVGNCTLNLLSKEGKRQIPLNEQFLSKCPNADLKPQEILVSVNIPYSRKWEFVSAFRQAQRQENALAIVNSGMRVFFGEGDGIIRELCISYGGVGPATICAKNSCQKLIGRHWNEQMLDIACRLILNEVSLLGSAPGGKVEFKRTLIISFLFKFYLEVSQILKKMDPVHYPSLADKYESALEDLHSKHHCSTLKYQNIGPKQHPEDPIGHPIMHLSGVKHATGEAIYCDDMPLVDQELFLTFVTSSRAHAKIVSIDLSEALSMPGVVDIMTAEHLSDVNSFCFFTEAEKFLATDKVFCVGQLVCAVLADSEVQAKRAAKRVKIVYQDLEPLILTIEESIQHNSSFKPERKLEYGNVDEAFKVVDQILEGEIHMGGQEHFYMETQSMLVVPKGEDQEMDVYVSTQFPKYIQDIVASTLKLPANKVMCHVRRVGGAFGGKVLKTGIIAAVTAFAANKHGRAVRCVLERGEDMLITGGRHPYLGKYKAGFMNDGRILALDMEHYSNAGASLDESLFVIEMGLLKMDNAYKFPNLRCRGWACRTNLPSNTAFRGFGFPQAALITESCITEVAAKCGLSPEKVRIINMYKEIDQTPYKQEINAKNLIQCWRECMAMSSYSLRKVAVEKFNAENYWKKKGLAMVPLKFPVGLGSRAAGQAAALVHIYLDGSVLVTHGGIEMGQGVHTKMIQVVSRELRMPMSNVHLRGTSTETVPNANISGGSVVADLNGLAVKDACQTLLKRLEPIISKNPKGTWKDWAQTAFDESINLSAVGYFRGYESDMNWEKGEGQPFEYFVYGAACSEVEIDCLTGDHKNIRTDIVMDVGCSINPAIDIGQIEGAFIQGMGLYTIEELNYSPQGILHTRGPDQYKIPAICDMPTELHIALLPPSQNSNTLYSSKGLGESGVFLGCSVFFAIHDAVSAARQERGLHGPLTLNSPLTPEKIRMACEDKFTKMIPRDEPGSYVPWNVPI
The series is described as follows: Incubations with HLC fractions for AO activity. Format: in vitro ADME. Conditions: HLC 1 mg/mL, 10 μM MPZ. How it is done: The metabolism of MPZ was evaluated in the human liver cytosolic incubation. A metabolic incubation was performed with HLC (1 mg/mL protein) and 10 μM MPZ at 37° C. for on an orbital shaker for 60 min. […] Another set of incubation was also conducted 1 μM phthalazine, a known substrate for aldehyde oxidase as positive control, under identical conditions.

As to `CS(=O)(=O)c1ccc2c(c1)N(CCCN1CCC(C(N)=O)CC1)c1ccccc1S2` [MPZ, metopimazine], the entries for the “metabolite production in HKM” value in series [1] and in series [1] (listed as metopimazine) were “did not produce any metabolites” and “No metabolites were produced under any condition”, respectively.

Turning to `CS(=O)(=O)c1ccc2c(c1)N(CCCN1CCC(C(=O)O)CC1)c1ccccc1S2` [MPZA, metopimazine acid], the “MPZA formation in HLM at pH 8.4” value with microsomal FMOs in HLM is listed as “Considerable formation of MPZA was observed with all conditions”. Moreover, in series [2] (incubation time 0 min), the “Metopimazine Acid Formation, 100 μM Menadione” value was determined as 0.00 nM and the “Metopimazine Acid Formation, No Menadione” value is listed as 0.00 nM. Besides, in series [2] (incubation time 60 min), the “Metopimazine Acid Formation, 100 μM Menadione” value is given as 718.90 ± 21.40 nM and the “Metopimazine Acid Formation, No Menadione” value is listed as 1371.66 ± 70.93 nM.
